Assay results reported in publication PMC4649711, “In1-ghrelin splicing variant is overexpressed in pituitary adenomas and increases their aggressive features” (Scientific Reports, 2015).

How the values were obtained:
PRL-omas = conditions: previous studies; cited from earlier work
Text: Conversely, In1-ghrelin peptides only elicited [Ca^2+]i responses in a negligible percentage of PRL-oma cells, which is in accordance with the lack of effect of these peptides in the modulation of PRL release. However, In1-40 but not In1-19 p ...

AtT-20 cell line [1] = experiment: ACTH secretion from AtT-20 cell line; type: cell-based, mouse; conditions: 4 h, 3–5 independent experiments
Method: (§1) The mouse corticotroph pituitary derived cell line AtT-20/D16v-F2 (ATCC® CRL-1795) was cultured and maintained in Dulbecco's Modified Eagle's Medium (DMEM) complemented with 10% FBS, 100 U/ml penicillin/streptomycin, 0.024 M of 2-(4(2-hydroxyethyl)-1-piperazine)-ethane sulfonic acid (HEPES), and maintained at 37°C and 5% CO2, under sterile conditions. CHO-K1 cell line(ATCC® CCL-61) expressing recombinant human GHSR1a (GenBank accession number U60179) or GHSR1b (GenBank accession number U60181) were cultured and maintained in Ham's F12 media (Corning #10-080-CV) supplemented with 10% FBS, 2 mM L-Glutamine and 0.4 mg/mL Geneticin.
To examine the effects of ghrelin system components (4- and/or 24 h-incubation) on pituitary hormone release from primary pituitary adenoma and/or AtT-20 cell line, 100,000–200,000 cell/well were used. As previously reported, hormone concentrations were measured in the culture media derived from human samples according to the pituitary adenoma type using commercial ELISAs [growth hormone, GH; adrenocorticotropin, ACTH; and prolactin, PRL (reference numbers: EIA-3552, EIA-3647 and EIA-1291, respectively; DRG, Mountainside, NJ, USA)] following the manufacturer's instructions. All the information regarding specificity, detectability, and reproducibility for each of the assays can be accessed at the web site of the company.

AtT-20 cell line [2] = experiment: cell viability of AtT-20 cell line; type: cell-based, mouse; conditions: alamar-blue, 3–5 independent experiments, IGF-1 and Paclitaxel as controls
Method: as §1
As previously reported, cell viability was estimated using alamar-blue reagent (10,000 cells/well-plate; Biosource International, Camarillo, CA, USA)[30][50][52]. Briefly, cells were serum-starved for 12–16 h before the measurements and treated with serum-free medium containing 10% alamar-blue for 3 h. Reduction of alamar-blue reagent was quantified exciting at 560 nm and reading at 590 nm using the FlexStation III system (Molecular Devices, Sunnyvale, CA, USA). Subsequently, media was replaced by serum-containing alamar-blue free medium and incubated for additional 24–72 h, measuring the alamar-blue reduction every 24 h. […]

Compound: CCCCCCCC(=O)OC[C@H](NC(=O)[C@H](CO)NC(=O)CN)C(=O)N[C@@H](Cc1ccccc1)C(=O)N[C@@H](CC(C)C)C(=O)N[C@@H](CO)C(=O)N1CCC[C@H]1C(=O)N[C@@H](CCC(=O)O)C(=O)N[C@@H](Cc1c[nH]cn1)C(=O)N[C@@H](CCC(N)=O)C(=O)N[C@@H](CCCNC(=N)N)C(=O)N[C@H](C(=O)N[C@@H](CCC(N)=O)C(=O)N[C@@H](CCC(N)=O)C(=O)N[C@@H](CCCNC(=N)N)C(=O)N[C@@H](CCCCN)C(=O)N[C@@H](CCC(=O)O)C(=O)N[C@@H](CO)C(=O)N[C@@H](CCCCN)C(=O)N[C@@H](CCCCN)C(=O)N1CCC[C@H]1C(=O)N1CCC[C@H]1C(=O)N[C@@H](C)C(=O)N[C@@H](CCCCN)C(=O)N[C@@H](CC(C)C)C(=O)N[C@@H](CCC(N)=O)C(=O)N1CCC[C@H]1C(=O)N[C@@H](CCCNC(=N)N)C(=O)O)C(C)C [AG]
- PRL secretion (PRL-omas): increases PRL secretion
- basal ACTH release (AtT-20 cell line [1]): did not significantly alter basal ACTH release
- cell viability (AtT-20 cell line [2]): did not alter cell viability
